# Conditions: buffer; pH 7.4; 200.0 µM
row,SMILES,solubility kinetic [µg/mL]
1,Cc1ccc(/C=N/n2c(C)nc3ccccc3c2=O)o1,> 40.1
2,OCC(CO)(CO)NC(=S)Nc1cc(Cl)cc(Cl)c1,46.7
3,O=C(Cn1cccc1C(=O)c1ccccc1)NCc1ccc(Cl)cc1,1.1
4,CC1CCC2(CC1)NC(=O)N(CC(=O)NCc1ccc3c(c1)OCO3)C2=O (stereo not given),6.1
5,C(=C\c1ccccc1)/CSc1nc2ncccc2[nH]1,8.9
6,CC1(C)C2CCC1(C)C(OC(=O)CNc1ccccc1)C2 (stereo not given),4.2
7,CCCCCn1c(N)c(C(=O)NCc2cccs2)c2nc3ccccc3nc21,0.9
8,O=C(Nc1cccc([N+](=O)[O-])c1)NC1CCS(=O)(=O)C1 (stereo not given),> 44.9
9,Cc1cccn2c(=O)nc(SCC(=O)NCc3ccc(F)cc3)nc12,> 53.8
10,Cc1cc(-c2ccccc2)oc(=O)c1NC(=O)c1ccccc1,< 0.7
11,Oc1cccc2ccc(N3CCOCC3)nc12,> 34.5
12,O=C(Nc1cc(Cl)ccc1N1CCOCC1)c1cccnc1,> 47.7
13,N#C/C(=C\c1ccc[nH]1)C(=O)N1CCCCC1,> 34.4
14,Cc1cc(C=O)c(C)n1-c1ccc(NC2CCCC2)c([N+](=O)[O-])c1,5.1
15,O=C(COC(=O)c1ccc2c(c1)OCO2)Nc1ccccc1Cl,3.5
16,CC(=O)Nc1ccc2sc(C)nc2c1,> 30.9
17,CC(NC(=O)COC(=O)c1ccc[nH]c1=O)c1ccccc1 (stereo not given),> 45
18,CC1CN(C(=S)NC2CCCC2)CC(C)O1 (stereo not given),> 36.4
19,Cc1ccc(C2=NOC3(CC(=O)N(c4ccc(C)cc4)C3=O)C2)cc1 (stereo not given),12.6
20,O=C(CSc1ccccc1)N1CCN(C(=O)c2ccco2)CC1,> 49.6
21,COc1ccc(S(=O)(=O)Nc2cccnc2)cc1OC,> 44.1
22,CCN(C(=O)COC(=O)CN1C(=O)c2ccccc2C1=O)c1ccccc1,> 55
23,Cc1ccc(NC(=S)N2CCCC2)cc1C,> 35.2
24,COc1cccc(C(=O)N2CCN(C(=O)C3CC3)CC2)c1,40.7

row,SMILES,solubility kinetic [µg/mL]
1,CN1C(=O)Nc2cccc3cccc1c23,10.1
2,COc1cc2c(cc1OC)CN(CC(=O)NC(=O)NC1CCCCC1)CC2,> 56.3
3,Nc1nc(Nc2ccccc2)sc1C(=O)c1ccccc1,4.3
4,Cc1cccc(NC(=O)c2ccc3[nH]c(=O)c(=O)[nH]c3c2)n1,17.7
5,Cc1c(Cl)cccc1NC(=O)C1COc2ccccc2O1 (stereo not given),30.6
6,COC(=O)C1CN(C(=O)c2ccc(OC(F)F)cc2)c2ccccc2O1 (stereo not given),43.1
7,COc1cccc(NC(=O)CN2C(=O)NC(Cc3c[nH]c4ccccc34)C2=O)c1 (stereo not given),22
8,COc1ccc(CC(=O)Nc2nc(C(C)(C)C)cs2)cc1,2.1
9,Cc1ccc(-c2cnco2)cc1,< 0.3
10,O=C(CN1C(=O)NC2(CCCCC2)C1=O)NCCc1ccc(Cl)cc1Cl,> 59.7
11,Cc1cc(C)cc(N2CC(C(=O)NC3CCCCC3)CC2=O)c1 (stereo not given),11.4
12,Cc1ccc(C(=O)N2CCN(CCNC(=O)C(=O)Nc3ccc(Cl)cc3)CC2)cc1,2.6
13,CCc1cc2c(NC(Cc3ccccc3)C(=O)O)ncnc2s1 (stereo not given),> 49.1
14,Cc1ccccc1Oc1nc2c(c(=O)n(C)c(=O)n2C)n1C,> 45
15,N#C/C(=C\Nc1ccc2c(c1)OCCO2)C(=O)NCc1ccco1,4.6
16,Cc1ccc(CNC(=S)Nc2cc(C)ccc2OC(F)F)cc1,4.7
17,CC(=O)c1sc(-c2ccccc2)nc1C,13.9
18,COCC(C)n1c(C)cc(C(=O)COC(=O)c2cccn2C)c1C (stereo not given),> 49.9
19,O=C(NCC1CCCO1)c1ccc(Br)s1 (stereo not given),42.4
20,O=C(c1cc(S(=O)(=O)N2CCOCC2)ccc1F)N1CCc2ccccc21,> 58.6
21,C=CCNC(=O)NC(=O)c1csc([N+](=O)[O-])c1,2
22,CC(=O)Nc1ccc2c(c1)nc(CCNC(=O)c1ccco1)n2C,48.2
23,CCN(CCS(=O)(=O)c1ccc(Cl)cc1)Cc1nc2ccccc2c(=O)[nH]1,> 60.9
24,COc1ccc(Cl)cc1NC(=O)CNc1ccccc1N1CCOCC1,< 0.3

row,SMILES,solubility kinetic [µg/mL]
1,COc1ccc(NC(=O)N2CCc3ccccc3C2)cc1,17.8
2,COC(=O)c1cc(N2CCNCC2)nc2ccccc12.Cl,39.9
3,CCN1CCc2c(C#N)c(NCc3ccccc3)nc(NCCO)c2C1,6.3
4,O=C(COc1ccc(S(=O)(=O)N2CCOCC2)cc1)NC1CC1,> 51.1
5,CCc1ccc(/C=C2/SC(N3CCOCC3)=NC2=O)cc1,26.5
6,CCn1cc([N+](=O)[O-])c(C(=O)N2CCCc3ccccc32)n1,> 45
7,CCOC(=O)N1CCN(C(=O)c2c(N)no[n+]2[O-])CC1,> 42.8
8,O=S(=O)(Cc1ccccc1)Nc1ccc(F)cc1,> 39.8
9,CCOC(Cn1cc(C)c(=O)[nH]c1=O)OCC,> 36.3
10,COc1ccc(-c2cc(C(=O)N3CCCCCC3)no2)cc1,4
11,COc1ccc(CNCc2ccc(C)cc2)c(OC)c1.O=C(O)C(=O)O,40.5
12,CC(C)(C)CNc1cc(N2CCOCC2)ccc1[N+](=O)[O-],1.8
13,Nc1cc(OCC(F)(F)F)cc(OCC(F)(F)F)c1,> 43.4
14,O=C(/C=C/c1cccc(F)c1)NCc1ccc2c(c1)OCO2,3.3
15,CNC(=S)N1CCC(NC(=O)c2ccco2)CC1,> 40.1
16,Cc1ccc(OCC(O)CN2CCc3ccccc3C2)c(C)c1.Cl (stereo not given),30.7
17,CCN1C(=O)C(=O)N(CC(=O)N(C)CC(=O)Nc2ccccc2C(F)(F)F)C1=O,> 62.1
18,CCOCCCNC(=O)/C(C#N)=C/c1ccc(C(=O)OC)cc1,19.1
19,Oc1ccc2ccccc2c1C=Nc1ccccc1Br,< 0.7
20,CC(NC(=O)CCNC(=O)c1ccccc1Cl)c1ccc(-n2ccnc2)cc1 (stereo not given),> 59.5
21,CN1CCN(c2ncc(CN3C(=O)c4ccccc4C3=O)s2)CC1,> 51.4
22,CCOC(=O)C1CCN(C(=O)c2cc3cc(F)ccc3[nH]2)CC1,32.4
23,COC(=O)c1sccc1NC(=S)Nc1ccc(OC)cc1,35.3
24,Cc1ncc([N+](=O)[O-])n1CCO,> 25.7

row,SMILES,solubility kinetic [µg/mL]
1,CCSC1=N/C(=C\c2ccccc2)C(=O)N1c1ccc(OC)cc1,< 0.4
2,COc1ccc(CNC(=O)C(C)OC(=O)c2cccs2)cc1 (stereo not given),26.9
3,Nc1nc2ccc(C(=O)NCCOC(=O)C3CCCCC3)cc2s1,12.8
4,COc1ccc(C)cc1NC(=O)Nc1ccccc1SC,1.3
5,O=C(OCC(=O)c1ccc(Cl)cc1Cl)c1ccccn1,> 46.5
6,CCCC1Cc2c(sc(N)c2C#N)CO1 (stereo not given),> 33.3
7,Cc1cccc(NC(=O)CCCC(=O)OC(C)C(=O)c2ccccc2)c1 (stereo not given),46.1
8,CC1CN(C(=S)Nc2ccc(SC(F)F)cc2)CC(C)O1 (stereo not given),> 49.9
9,COc1ccc(-c2nnc(SCC(=O)O)n2C)cc1OC,> 46.4
10,Cc1cnc([N+](=O)[O-])n1CCOC(=O)NC(=O)c1ccccc1,44.4
11,C#Cc1cccc(NC(=O)Cc2cccs2)c1,> 36.2
12,CN1CCN(C(=O)c2ccc(-c3cccs3)s2)CC1,> 43.9
13,O=C(NCCc1ccc(Cl)cc1)C(=O)c1c[nH]c2ccccc12,2.1
14,NS(=O)(=O)c1ccc(CNC(=O)/C=C/c2cccc([N+](=O)[O-])c2)cc1,14.2
15,COc1ccc(Nc2ccc([N+](=O)[O-])c3nonc23)c(OC)c1,< 0.2
16,Cc1ccc(NC(=O)c2ccc(Oc3ncccn3)cc2)cc1,5
17,O=[N+]([O-])c1ccccc1OCCCOc1cccc2cccnc12,18.2
18,NS(=O)(=O)c1ccc(CCNC(=O)c2ccc(-c3ccccc3)cc2)cc1,< 0.4
19,COc1ccc([N+](=O)[O-])cc1NC(=O)C(C)OC(=O)Cc1ccc(OC)c(OC)c1 (stereo not given),31.1
20,CCCn1c(SCC(=O)N(CC)CC)nnc1-c1ccncc1,> 50
21,COc1cccc(/C=C/C(=O)OCC(=O)N2CCCC2)c1OC,> 47.9
22,CC(C)Cc1nnc(NC(=O)CCC(=O)NC2CC2)s1,> 44.5
23,COc1ccc(CCNC(=O)Cc2ccsc2)cc1,> 41.3
24,CN(C)c1ccc(C(=O)OCC(=O)N2CCCC2)cc1,> 41.5

row,SMILES,solubility kinetic [µg/mL]
1,CCCn1c(=O)c(C(=O)Nc2ncccc2O)c(O)c2ccccc21,4.1
2,Cc1ccccc1OCCN1CCCC1,19.5
3,O=C(Nc1cccc(Cl)c1)c1cncn1-c1ccc(F)cc1,45.4
4,OCCc1c[nH]c2ccc(OCc3ccccc3)cc12,24.8
5,O=C(NCc1ccc(F)cc1)c1cc(C(=O)C2CC2)c[nH]1,4.2
6,O=C(O)c1ccc(NC(=O)c2ccc(COc3ccccc3)o2)cc1,> 50.6
7,CCOc1ccc2c(c1)c1nc3ccccc3nc1n2C,< 0.2
8,O=C(O)CSc1nc2ccccc2nc1Cc1ccccc1F,47.7
9,N#CC1(Nc2cccc(Br)c2)C(=O)Nc2ccccc21 (stereo not given),> 49.2
10,CCOc1ccc(N(C)Cc2cc(=O)oc3ccc(OCC)cc23)cc1,2.3
11,CC(C)(C)N1C(=O)c2ccc(C(=O)Nc3cc(C(=O)O)cc(C(=O)O)c3)cc2C1=O,51.5
12,CNC(=O)COC(=O)c1ccccc1Nc1ccccc1,2.6
13,COc1ccc(-c2onc(C)c2-c2ccc3c(c2)OCCO3)c(O)c1,2.6
14,COc1ccc([N+](=O)[O-])cc1NC(=O)COC(=O)C=C(C)C,1.1
15,Cc1ccc(NC(=O)C(C)Sc2nnc3ccccn23)cc1 (stereo not given),> 46.9
16,O=C1c2cccc3cccc(c23)C(=O)N1Cc1ccccc1,< 0.6
17,COc1ccc(CC(=O)NCCCCc2ccccc2)cc1OC,> 49.1
18,CN(C)CCSC1c2ccccc2CSc2ccccc21.Cl (stereo not given),51.6
19,FC(F)(F)c1ccc(NC(=S)NC2CCCCC2)cc1,2.5
20,CCOC(=O)CC1C(=O)NCCN1C1CCCC1 (stereo not given),> 38.1
21,CC1=CC(=C(C#N)C#N)c2ccccc2N1C,2.7
22,Cc1cc(NC(=O)CN2C(=O)c3ccccc3S2(=O)=O)no1,32.7
23,COc1ccc(S(=O)(=O)n2c(C)nc3ccccc32)cc1C,36.2
24,Cc1cc(C(=O)Nc2cccc3ccccc23)co1,33
